Results: patent US5663335A, “Immunosuppressive compounds and methods” (priority 1996, dated 1997)
Where two headings read alike, the source gives them in different places.

Key:
[1] = test system: murine thymocytes (IL-1β action); assay: Inhibition of IL-1 action: suppression of IL-1β + PHA stimulated thymocyte proliferation ((3H)-thymidine incorporation); assay type: cell-based, mouse (C3H/HeN); details: IL-1β 0.08 ng/ml + PHA 10 μg/ml
Protocol: The ability of the above compounds to suppress the cell-proliferative effect of IL-1β (O'Gara, 1990) was examined as described in Example 11. Mouse thymocytes in culture were stimulated with IL-1β in the presence of phytohemagglutinin (PHA) and increasing concentrations of triptolide (control) and triptolide derivatives. The cells were cultured for 72 hours, and during the last 18 hours, incubated with tritiated thymidine. DNA synthesis was assessed by measuring incorporation of radiolabeled thymidine. The results expressed in terms of IC50 (concentration effective to cause 50% suppression of proliferation) are shown in Table I.
Inhibition of IL-1 Action on Murine Thymocytes
C3H/HeN mouse thymocytes were prepared and the action of IL-1 together with PHA, which stimulate proliferation of thymocyte, was measured using standard techniques (O'Gara, 1990; Mishell, 1980). Three- to six-week old C3H/HeN male mice (Simonson Laboratory, Gilroy, Calif.) were sacrificed by CO2 inhalation. Thymi were removed, separated from adherent non-thymic tissue, homogenized in Hank's balanced salt solution (HBSS, Gibco) using a glass homogenizer, and centrifuged at 200×g for 10 minutes at 15° C. Following an additional wash in HBSS, the thymocytes were resuspended in RPMI 1640 medium containing 50 uM 2-mercaptoethanol, 2 mM glutamine, 1 mM sodium pyruvate, non-essential amino acids 100 U/ml penicillin, 100 μg/ml streptomycin, and 10% heat-inactivated fetal bovine serum.
Cells were cultured in round-bottom 96 well microtiter tissue culture plates, 6×10^5 cells per well, in a volume of 100 μl. Recombinant human IL-1β(R & D Systems #201-LB) together with Phytohemagglutinin P (PHA, Pharmacia) were added to the cells in volume of 25 μl per well to achieve a final concentration of 0.08 ng/ml and 10 μg/ml, respectively. Samples were dissolved in DMSO (10 mg/ml), then diluted in culture medium. […]
Plates were incubated at 37° C. in a 5% CO2 incubator for 72 hours. […] Cells were then harvested and counted. […]

[2] = Cytotoxicity by MTT assay, reported with the MLR assay (Table II); assay type: cell-based; details: pbmc and thymocytes, cytotoxic when toxicity greater than 25%
Protocol: Potential cytotoxicity of the test samples was assessed by the measurement of their effect on the reduction of MTT (3-[4,5-Dimethylthiazole-2-yl]-2,5-diphenyltetrazolium bromide) by cultured cells. MTT, a yellow-colored compound, is reduced by mitochondrial enzymes to form the purple crystalline reduction product formazane, providing an index of cellular respiration on viable cells as well as a sensitive assay for cytotoxicity (Mossmann, 1983).
The cytotoxicity was assessed in cultured human PBMC and mouse thymocytes. A stock solution of MTT (Sigma) at 5 mg/ml in phosphate buffered saline, pH 7.4, was prepared and stored in the dark at 4° C. PBMCs or thymocytes were cultured with various concentrations of test samples in flatbottom 96-well tissue culture plates (Costar) under the same conditions as those described above, but the stimulants (X-35 or IL-1+PHA) were replaced by appropriate medium. Untreated cells with medium alone and without the test samples were used as controls. After incubation for 21 hours, 25 μl of MTT solution was added to each well. After an additional three hours of incubation, the experiment was terminated by addition of a solution of 10% sodium dodecyl sulfate in 0.01N HCl. Following overnight incubation at 37° C. to solubilize the formazane crystals, optical density was determined at 570-650 nm in microplate reader. […]

[3] = Stability in blood serum (TLC); assay type: in vitro ADME; details: rat serum, 37° C
Protocol: The stability of triptolide succinate in blood serum was determined as detailed in Example 10B. In this study, a solution of triptolide succinate (YM-262, free acid) in DMSO was mixed with rat serum and incubated at 37° C. The mixture was assayed periodically by thin layer chromatography (TLC) to follow the hydrolysis of the triptolide succinate over time.
A solution of triptolide succinate (free acid; YM-262) in DMSO was made at a concentration of 25 mg/ml, and 0.1 ml of this solution was mixed with 0.5 ml of rat serum. The mixture was incubated at 37° C. Aliquots of the mixture were taken at 1, 3, 5, 15, 45 minutes and 18 hours and analyzed by thin layer chromatography (TLC). The TLC plates were developed in 1:5 CH2 CI2 /Et2 O. After development, the plates were treated with iodine vapor and examined under a UV lamp. Triptolide and triptolide succinate were used as reference compounds (Rf =0.60), and 0.45, respectively).

Structure (SMILES): CC(C)[C@]12O[C@H]1[C@@H]1O[C@]13[C@]1(O[C@H]1C[C@H]1C4=C(CC[C@@]13C)C(=O)OC4)[C@@H]2O [Triptolide, triptolide]
- IC50 ([1]; 72 hours, read-out: IC50, IL-1 assay): ~5 nM
- IC50 ([1]; Mus musculus, Thymocyte, 72 h, read-out: IC50 (concentration effective to cause 50% suppression of proliferation), IL-1 assay): 1.9 ng/mL
- IC50 ([1]; Mus musculus, Thymocyte, 72 h, read-out: IC50, IL-1 assay): 5.3 nM
- MCC [2]: 0.0133 µg/mL
- triptolide spot, 15 minutes (formed from triptolide succinate) ([3]; 15 minutes): a new spot corresponding to triptolide had appeared
- triptolide spot, 45 minutes (formed from triptolide succinate) ([3]; 45 minutes): the triptolide spot had also disappeared
